According to patent US20230303570A1, “KINASE INHIBITORS AND USES THEREOF” (ABM Therapeutics Corporation, priority 2020, published 2023):

biological target: HPK1 (MAP4K1) (Homo sapiens, UniProt Q92918); experiment: HPK1 (MAP4K1) kinase Lantha screen assay; type: biochemical
Protocol: The effect of the compounds on the activity of HPK1 (MAP4K1) kinase were assessed by Lantha screen assay. • 1. 1×kinase buffer was prepared (50 mM HEPES, pH 7.5, 10 mM MgCl2, 4 mM DT • 2. Compound and assay plates preparation: • 2-1) The compound was diluted to 100× of the final desired highest inhibitor concentration in reaction by 100% DMSO. For example, if a compound was tested at […], then a solution at 500 µM in DMSO was prepared in this step. • 2-2) For each tested compound, the compound was transferred in tubes to one well on a 96-well storage plate and serially diluted by transferring […] of 100% DMSO in the next well and so forth for a total of 6 concentrations. • 2-3) 100 μl of 100% DMSO were added to two empty wells to serve as no compound control and no enzyme control in the same 96-well plate. The resulting plate was labeled as the source plate. • 2-4) 40 μl of compound from source plate were transferred to a new 384-well Echo plate as the intermediate plate. 100 nl of each well from the 384-well Echo plate were transferred to a 384-well assay plate in duplicates. For example, A1 of the 384-well Echo plate was transferred to A1 and A2 of the 384-well plate. A2 of the 384-well Echo plate was transferred to A3 and A4 of the 384-well plate, and so on; • 3. Kinase reaction: a solution of MAP4K1 in 1× kinase buffer at 2-fold the final concentration of each reagent in the assay was prepared. 5 μl of kinase solution was added to each well of the assay plate, except for control wells without enzyme (add 5 μl of 1× kinase buffer instead). The plate was then shaken, then incubated at room temperature for 10 min. A substrate solution of Fluorescein-PKC and ATP in 1× kinase reaction buffer at 2-fold of the final concentration of each reagent desired in the assay was prepared. 5 μl of substrate solution was added to each well of the assay plate to start reaction. The plate was shaken, then covered, and incubated at room temperature for 90 minutes.
Kinase detection: detection solution of 2-fold of final concentration in Antibody Dilution Buffer was prepared. 10 μl of detection solution was added to each well of the assay plate to stop the reaction. The mixtures were mixed briefly with Centrifuge and incubated at room temperature 60 minutes before reading on a plate reader for fluorescence. Data was collected on Envision with excitation at 340 nm and emission at 520 nm and 495 nm.

HPK1 (MAP4K1), sequence (Q92918 whole entry, species assumed): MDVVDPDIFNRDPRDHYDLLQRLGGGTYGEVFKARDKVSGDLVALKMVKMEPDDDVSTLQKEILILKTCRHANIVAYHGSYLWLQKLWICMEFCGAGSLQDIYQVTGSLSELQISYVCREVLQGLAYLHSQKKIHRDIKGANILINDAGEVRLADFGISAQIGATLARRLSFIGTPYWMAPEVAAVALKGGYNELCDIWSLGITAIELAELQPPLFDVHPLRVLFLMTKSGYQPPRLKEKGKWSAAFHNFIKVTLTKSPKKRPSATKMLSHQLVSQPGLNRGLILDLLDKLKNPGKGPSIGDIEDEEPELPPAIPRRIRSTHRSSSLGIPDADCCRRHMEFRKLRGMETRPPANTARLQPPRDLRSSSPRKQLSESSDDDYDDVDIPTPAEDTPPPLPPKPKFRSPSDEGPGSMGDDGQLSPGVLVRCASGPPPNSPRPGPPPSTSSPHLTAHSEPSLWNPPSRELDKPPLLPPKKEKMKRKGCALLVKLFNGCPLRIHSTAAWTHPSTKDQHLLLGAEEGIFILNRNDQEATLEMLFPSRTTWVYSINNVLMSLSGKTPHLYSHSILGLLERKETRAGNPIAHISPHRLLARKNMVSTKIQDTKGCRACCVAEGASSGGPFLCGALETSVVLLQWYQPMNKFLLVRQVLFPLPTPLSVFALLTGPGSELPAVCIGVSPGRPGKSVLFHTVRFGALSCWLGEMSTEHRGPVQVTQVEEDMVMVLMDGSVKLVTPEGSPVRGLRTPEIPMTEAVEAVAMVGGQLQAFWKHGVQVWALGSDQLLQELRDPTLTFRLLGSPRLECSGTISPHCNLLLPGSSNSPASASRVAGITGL

Row | SMILES | IC50 [nM]
1 | CNc1ncc2c(n1)N1CCN=C1C(c1cc(NC(=O)C3CC(C(F)(F)F)CCN3)ccc1C)=C2 (stereo not drawn) [Compound 154, N-(4-methyl-3-(2-(methylamino)-8,9-dihydroimidazo[1′,2′:1,6]pyrido[2,3-d]pyrimidin-6-yl)phenyl)-4-(trifluoromethyl)piperidine-2-carboxamide] | > 10000
2 | CNc1ncc2c(n1)N1CCN=C1C(c1cc(NC(=O)C3CCNC(C(F)(F)F)C3)ccc1C)=C2 (stereo not drawn) [Compound 155, N-(4-methyl-3-(2-(methylamino)-8,9-dihydroimidazo[1′,2′:1,6]pyrido[2,3-d]pyrimidin-6-yl)phenyl)-2-(trifluoromethyl)piperidine-4-carboxamide] | > 10000
3 | CNc1ncc2c(n1)N1CCN=C1C(c1cc(NC(=O)c3cccc(C(C)(C)C#N)c3)ccc1C)=C2 [Compound 161, 3-(2-cyanopropan-2-yl)-N-(4-methyl-3-(2-(methylamino)-8,9-dihydroimidazo[1′,2′:1,6]pyrido[2,3-d]pyrimidin-6-yl)phenyl)benzamide] | < 100
4 | CNc1ncc2c(n1)N1CCN=C1C(c1cc(NC(=O)c3ccnc(C(C)(C)C#N)c3)ccc1C)=C2 [Compound 162, 2-(2-cyanopropan-2-yl)-N-(4-methyl-3-(2-(methylamino)-8,9-dihydroimidazo[1′,2′:1,6]pyrido[2,3-d]pyrimidin-6-yl)phenyl)isonicotinamide] | < 100
5 | CNc1ncc2c(n1)N1CCN=C1C(c1cc(NC(=O)c3cc(C(C)(C)C#N)ccn3)c(F)cc1C)=C2 [Compound 165, 4-(2-cyanopropan-2-yl)-N-(2-fluoro-4-methyl-5-(2-(methylamino)-8,9-dihydroimidazo[1′,2′:1,6]pyrido[2,3-d]pyrimidin-6-yl)phenyl)picolinamide] | < 100
6 | Cc1cc(F)c(NC(=O)c2cccc(C(F)(F)F)n2)cc1C1=Cc2cnc(NC3COC3)nc2N2CCN=C12 [Compound 179, N-(2-fluoro-4-methyl-5-(2-(oxetan-3-ylamino)-8,9-dihydroimidazo[1′,2′:1,6]pyrido[2,3-d]pyrimidin-6-yl)phenyl)-6-(trifluoromethyl)picolinamide] | 100 to 10000
7 | Cc1cc(F)c(NC(=O)c2cccc(C(C)(C)C#N)c2)cc1C1=Cc2cnc(NC3COC3)nc2N2CCN=C12 [Compound 180, 3-(2-cyanopropan-2-yl)-N-(2-fluoro-4-methyl-5-(2-(oxetan-3-ylamino)-8,9-dihydroimidazo[1′,2′:1,6]pyrido[2,3-d]pyrimidin-6-yl)phenyl)benzamide] | < 100
8 | Cc1cc(F)c(NC(=O)c2cccc(C(C)(C)C#N)n2)cc1C1=Cc2cnc(NC3COC3)nc2N2CCN=C12 [Compound 182, 6-(2-cyanopropan-2-yl)-N-(2-fluoro-4-methyl-5-(2-(oxetan-3-ylamino)-8,9-dihydroimidazo[1′,2′:1,6]pyrido[2,3-d]pyrimidin-6-yl)phenyl)picolinamide] | 100 to 10000
9 | CNc1ncc2c(n1)N1CCN=C1C(c1cc(NC(=O)c3cn(C(C)C)c(=O)n(-c4ccc(F)cc4)c3=O)c(F)cc1C)=C2 [Compound 194, N-(2-fluoro-4-methyl-5-(2-(methylamino)-8,9-dihydroimidazo[1′,2′:1,6]pyrido[2,3-d]pyrimidin-6-yl)phenyl)-3-(4-fluorophenyl)-1-isopropyl-2,4-dioxo-1,2,3,4-tetrahydropyrimidine-5-carboxamide] | 100 to 10000
10 | Cc1ccc(Nc2ncc3c(n2)N2CCN=C2C(c2cc(NC(=O)c4cccc(C(F)(F)F)c4)ccc2C)=C3)cn1 [Compound 207, N-(4-methyl-3-(2-((6-methylpyridin-3-yl)amino)-8,9-dihydroimidazo[1′,2′:1,6]pyrido[2,3-d]pyrimidin-6-yl)phenyl)-3-(trifluoromethyl)benzamide] | < 100
11 | Cc1ccc(NC(=O)c2cc(C(F)(F)F)ccn2)cc1C1=Cc2cnc(Nc3cccnc3C)nc2N2CCN=C12 [Compound 209, N-(4-methyl-3-(2-((2-methylpyridin-3-yl)amino)-8,9-dihydroimidazo[1′,2′:1,6]pyrido[2,3-d]pyrimidin-6-yl)phenyl)-4-(trifluoromethyl)picolinamide] | < 100
12 | Cc1ccncc1Nc1ncc2c(n1)N1CCN=C1C(c1cc(NC(=O)c3cc(C(F)(F)F)ccn3)ccc1C)=C2 [Compound 210, N-(4-methyl-3-(2-((4-methylpyridin-3-yl)amino)-8,9-dihydroimidazo[1′,2′:1,6]pyrido[2,3-d]pyrimidin-6-yl)phenyl)-4-(trifluoromethyl)picolinamide] | < 100
13 | Cc1ccc(Nc2ncc3c(n2)N2CCN=C2C(c2cc(NC(=O)c4cc(C(F)(F)F)ccn4)ccc2C)=C3)c(C)n1 [Compound 211, N-(3-(2-((2,6-dimethylpyridin-3-yl)amino)-8,9-dihydroimidazo[1′,2′:1,6]pyrido[2,3-d]pyrimidin-6-yl)-4-methylphenyl)-4-(trifluoromethyl)picolinamide] | < 100
14 | Cc1cc(Nc2ncc3c(n2)N2CCN=C2C(c2cc(NC(=O)c4cc(C(F)(F)F)ccn4)ccc2C)=C3)ccn1 [Compound 212, N-(4-methyl-3-(2-((2-methylpyridin-4-yl)amino)-8,9-dihydroimidazo[1′,2′:1,6]pyrido[2,3-d]pyrimidin-6-yl)phenyl)-4-(trifluoromethyl)picolinamide] | < 100
15 | Cc1cnccc1Nc1ncc2c(n1)N1CCN=C1C(c1cc(NC(=O)c3cc(C(F)(F)F)ccn3)ccc1C)=C2 [Compound 213, N-(4-methyl-3-(2-((3-methylpyridin-4-yl)amino)-8,9-dihydroimidazo[1′,2′:1,6]pyrido[2,3-d]pyrimidin-6-yl)phenyl)-4-(trifluoromethyl)picolinamide] | < 100

Further lines, results first:

Row | IC50 [nM] | SMILES
16 | 100 to 10000 | CNc1ncc2c(n1)N1CCN=C1C(c1cc(NC(=O)c3nccc(C(F)(F)F)c3Cl)ccc1C)=C2 [Compound 152, 3-chloro-N-(4-methyl-3-(2-(methylamino)-8,9-dihydroimidazo[1′,2′:1,6]pyrido[2,3-d]pyrimidin-6-yl)phenyl)-4-(trifluoromethyl)picolinamide]
17 | 100 to 10000 | CNc1ncc2c(n1)N1CCN=C1C(c1cc(NC(=O)c3cc(C(F)(F)F)c[nH]c3=O)ccc1C)=C2 [Compound 153, N-(4-methyl-3-(2-(methylamino)-8,9-dihydroimidazo[1′,2′:1,6]pyrido[2,3-d]pyrimidin-6-yl)phenyl)-2-oxo-5-(trifluoromethyl)-1,2-dihydropyridine-3-carboxamide]
18 | 100 to 10000 | CNc1ncc2c(n1)N1CCN=C1C(c1cc(NC(=O)c3cc(C(F)(F)F)cc(-n4cnc(C)c4)n3)ccc1C)=C2 [Compound 157, 6-(4-methyl-1H-imidazol-1-yl)-N-(4-methyl-3-(2-(methylamino)-8,9-dihydroimidazo[1′,2′:1,6]pyrido[2,3-d]pyrimidin-6-yl)phenyl)-4-(trifluoromethyl)picolinamide]
19 | 100 to 10000 | CNc1ncc2c(n1)N1CCN=C1C(c1cc(NC(=O)c3cc(C#N)ccn3)ccc1C)=C2 [Compound 159, 4-cyano-N-(4-methyl-3-(2-(methylamino)-8,9-dihydroimidazo[1′,2′:1,6]pyrido[2,3-d]pyrimidin-6-yl)phenyl)picolinamide]
20 | > 10000 | CNc1ncc2c(n1)N1CCN=C1C(c1cc(NC(=O)c3cncc(Cl)c3)ccc1C)=C2 [Compound 160, 5-chloro-N-(4-methyl-3-(2-(methylamino)-8,9-dihydroimidazo[1′,2′:1,6]pyrido[2,3-d]pyrimidin-6-yl)phenyl)nicotinamide]
21 | < 100 | CNc1ncc2c(n1)N1CCN=C1C(c1cc(NC(=O)c3cccc(C(C)(C)O)c3)ccc1C)=C2 [Compound 170, 3-(2-hydroxypropan-2-yl)-N-(4-methyl-3-(2-(methylamino)-8,9-dihydroimidazo[1′,2′:1,6]pyrido[2,3-d]pyrimidin-6-yl)phenyl)benzamide]
22 | 100 to 10000 | CNc1ncc2c(n1)N1CCN=C1C(c1cc(NC(=O)c3cccc(C(F)(F)F)c3)ncc1C)=C2 [Compound 190, N-(5-methyl-4-(2-(methylamino)-8,9-dihydroimidazo[1′,2′:1,6]pyrido[2,3-d]pyrimidin-6-yl)pyridin-2-yl)-3-(trifluoromethyl)benzamide]
23 | 100 to 10000 | CNc1ncc2c(n1)N1CCN=C1C(c1cc(NC(=O)c3cc(C(F)(F)F)ccn3)cnc1C)=C2 [Compound 191, N-(6-methyl-5-(2-(methylamino)-8,9-dihydroimidazo[1′,2′:1,6]pyrido[2,3-d]pyrimidin-6-yl)pyridin-3-yl)-4-(trifluoromethyl)picolinamide]
24 | > 10000 | CNc1ncc2c(n1)N1CCN=C1C(c1nc(NC(=O)c3cc(C(F)(F)F)ccn3)ccc1C)=C2 [Compound 192, N-(5-methyl-6-(2-(methylamino)-8,9-dihydroimidazo[1′,2′:1,6]pyrido[2,3-d]pyrimidin-6-yl)pyridin-2-yl)-4-(trifluoromethyl)picolinamide]
